{
  "source": "patent US11248016B2",
  "about": "“Glycolipids and pharmaceutical compositions thereof for use in therapy” (THE UNIVERSITY OF NOTTINGHAM, priority 2014, dated 2022)",
  "key": {"[1]": {"tested_on": "primary canine histocytic sarcoma tumour cells", "assay": "Primary canine tumour cell experiments", "format": "cell-based, dog", "details": "single dose Cisplatin (10 μM), 6 days", "method": "Cells were cultured for 6 days with a single dose treatment of Cisplatin™ (10 μM) or a combination of Cisplatin™ plus a compound of Formula II (active). Images were taken after 6 days treatment and are representative of three independently treated wells. Each image (40× magnification) represents the majority of the well area and is of an equivalent area in each photograph.\nKnown inhibitors of protein synthesis such as hippuristanol have proven potent anti-cancer properties when used in combination with chemotherapeutic agents such as Cisplatin™ or Doxorubicin™. However hippuristanol is naturally found in coral to is scarce and expensive to obtain, furthermore it is very difficult and expensive to synthesise. […] In particular this combination has a potent effect at slowing proliferation or killing cancer cells. Slow growing and difficult to treat tumour cell types such as A549 lung cancer cells, SH-SY5Y neuroblastoma or SKOV-3 cancer cells are all sensitised by exposure to Formula II to very low doses of Cisplatin™ (FIGS. 4d, 4e, 4f and 7)—a complete kill can be achieved in both A549 and SH-SY5Y cells after a single dose treatment with g quantities of a compound of Formula II in combination with 1 μM or 2.5 μM treatments of Cisplatin™. […]"}, "[2]": {"tested_on": "SKOV3 ovarian cancer cells", "assay": "Cell proliferation, SKOV3", "format": "cell-based", "details": "96 hours, Cisplatin alone; FIG. 4f", "method": "Growth of SKOV3 cell lines were slowed by the treatment with a compound of Formula II at higher doses. Experiment represents 6 biological repetitions, Error=S.E.M.\nCisplatin™ resistant SKOV-3 ovarian cancer cells were sensitised to treatment with a compound of Formula II in combination with 2.5 μM Cisplatin™ (p=0.003) (right hand bar in the figure), no effect is observed from treatment with equivalent levels of a compound of Formula II alone (left hand bar in the figure) or Cisplatin™ alone.\n(§1) Prior to treatment cells were cultured to an appropriate confluency in 96 well tissue culture plates (Fisher). Cells remained either supplemented with fresh media or treated with fresh media containing active or an equivalent volume of DMSO (vehicle control). Where used, Cisplatin™ was diluted to a stock concentration in Dimethylformamide (DMF), then handled as per the manufacturer's instructions. To determine relative cell viability, reagents WST-1 (Roche) or MTT (Sigma) were used as per the manufacturer's instructions and absorbance at 450 nm measured using a Victor plate reader (Perkin Elmer)."}, "NLGN1 5′UTR": {"tested_on": "NLGN1 5′UTR", "assay": "NLGN translation reporter assay, neuroligin 1", "format": "cell-based, human", "details": "FIG. 5: 1 μM Hippuristanol, 1.3 μM compound; FIG. 10: compound 46", "method": "(§2) The mechanism of action and level of activity of Formula II are consistent with and comparative to a proven translational inhibitor extracted from a rare coral species (Hippuristanol—a proven inhibitor of eIf4A). In this experiment 1 μM of Hippuristanol and 1.3 μM of Formula I was used\n(§3) FIG. 10—Compound 46, NLGN Translation reporter assay.\nDirect evidence is provided that inhibiting eIF4A represents a new route to treating ASD based on the data presented by Gkogkas et al. Nature 2013, 493:371-7.\nTreatment with the compound of Formula II (and compound 46) (FIG. 5 and FIG. 10) selectively decrease the firefly luciferase signal from a reporter construct containing the NLGN1 5′UTR upstream of a firefly luciferase gene. The translation of luciferase reporters downstream of the NLGN1 5′UTR has been proven to be dependent on the activity of the translation initiation complex eIF4F (Gkogkas et al Nature 2013, 493:371-7)—a complex containing the helicase eIF4A. Equivalent treatment had little effect on the signal generated from either a co-transfected renilla luciferase reporter control or cells transfected with an equivalent construct containing the NLGN2 5′UTR upstream of a firefly luciferase gene (FIG. 5 and FIG. 10).\nExperiments conducted using Firefly luciferase reporter plasmids containing the 5′ untranslated regions (UTRs) of the genes amyloid precursor protein (APP), thioredoxin (TXN) were conducted with reagents and materials described by Bottley et al, 2010. Experiments conducted using Firefly luciferase reporter plasmids containing the 5′ UTRs of the genes EGFR, BACE1 and Actin were conducted with reagents and materials described by Webb, 2012 (http://etheses.nottingham.ac.uk/2724/). […]\n(§4) Cells were transfected using FuGene 6 (Roche) following the manufacturer's instructions. The activities of firefly and renilla luciferase in lysates prepared from transfected cells were measured using a commercially available Luciferase reporter assay system (Promega) and light emission was measured over a 10 sec interval using a TECAN luminometer. […]"}, "[3]": {"tested_on": "A549 lung carcinoma cells", "assay": "Cell proliferation, A549 (WST-1 / MTT)", "format": "cell-based", "details": "for sensitisation of A549 cells to low dose cisplatin: range of doses with range of doses of Cisplatin, FIG. 14; for sensitisation of A549 cells to low dose cisplatin / growth of A549 cells: 96 hrs; for growth of A549 cells: range of doses, dose dependant manner, FIG. 13", "method": "Cisplatin™ resistant A549 lung cancer cells were sensitised to treatment with a compound of Formula II in combination with 1 μM Cisplatin™—a complete kill is achieved at higher doses of a compound of Formula II.\nCells were treated with a range of doses of active for either 48 or 96 hrs. Each data point is representaive of at least 4 biological repetitions.\nCells were treated with either 2 μM Cisplatin™ alone, c. 1 μg active alone or c. 1 μg active in combination with 2 μM Cisplatin™. A WST-1 cell proliferation assay was performed 96 hrs after treatment. Experiment represents 4 independent biological repetitions.\nA WST-1 cell proliferation assay was performed 72 hrs after treatment. Experiment represents 4 independent biological repetitions.\nCells were treated with either 2 μM or 10 μM Cisplatin™ alone, or 10 μg synthetic molecule Formula II in combination with 2 μM Cisplatin™. A WST-1 cell proliferation assay was performed 72 hrs after treatment. Experiment represents 4 independent biological repetitions. A 5-fold increase in the efficacy of Cisplatin™ is observed when treated in combination with the synthetic Formula II.\nCells were treated with either 2 μM, 5 μM or 10 μM Cisplatin™ alone, 50 μg synthetic acetyl derivative molecule or 30 μg in combination with 2 μM Cisplatin™. A WST-1 cell proliferation assay was performed 72 hrs after treatment. Experiment represents four independent biological repetitions. No effect was detected after treatment with 50 μg synthetic acetyl derivative, however an 8-fold increase in the efficacy of Cisplatin™ is observed when treated in combination with 30 μg synthetic acetyl derivative and […] Cisplatin™.\nFIG. 11—Natural molecule plus cisplatin compared to Hippuristanol plus cisplatin. […] The ratio between anti-proliferative activity to chemo sensitizing activity is also equivalent.\nFIG. 13—Dose curves of compounds 46, 99 and 123. […] Cells were treated with a range of doses of active for 96 hrs. Each data point is representative of at least 4 biological repetitions and error=s.e.m).\nFIG. 14—Cisplatin™ combination experiments—Compounds 46, 99 and 123. […] Cells were treated with a range of doses of active in combination with a range of doses of Cisplatin™ for 96 hrs. Each data point is representative of at least 4 biological repetitions and error=s.e.m).\nas §1"}, "NLGN2 5′UTR": {"tested_on": "NLGN2 5′UTR", "assay": "NLGN translation reporter assay, neuroligin 2", "format": "cell-based, human", "details": "equivalent treatment; FIG. 5 and FIG. 10", "method": "as §2, §3\nTreatment with the compound of Formula II (and compound 46) (FIG. 5 and FIG. 10) selectively decrease the firefly luciferase signal from a reporter construct containing the NLGN1 5′UTR upstream of a firefly luciferase gene. The translation of luciferase reporters downstream of the NLGN1 5′UTR has been proven to be dependent on the activity of the translation initiation complex eIF4F (Gkogkas et al Nature 2013, 493:371-7)—a complex containing the helicase eIF4A. […]\nas §4"}, "three Gag isoforms": {"tested_on": "three Gag isoforms", "details": "increasing amounts, dose-response; cited from earlier work"}, "[4]": {"tested_on": "firefly luciferase translation reporter", "assay": "Firefly luciferase translation reporter assay", "format": "cell-based, human", "details": "Hippuristanol (1 μM) alone, 4 hrs; FIG. 3c", "excerpt": "Graphs represent 4 biological repetitions per treatment—2 independent treatments of a compound of Formula II.\nGraphs represent 4 biological repetitions per treatment. […] No difference is observed between Hippuristanol and Hippuristanol plus a compound of Formula II.\nThe degree of translation inhibition is shown to be equivalent to that of a known inhibitor of translation, hippuristanol (FIGS. 3b and 5). Comparative structured 5′UTR firefly luciferase reporter experiments conducted using either hippuristanol or a compound of Formula II show the inhibition of reporter levels is equivalent.\nCells were transfected using FuGene 6 (Roche) following the manufacturer's instructions. The activities of firefly and renilla luciferase in lysates prepared from transfected cells were measured using a commercially available Luciferase reporter assay system (Promega) and light emission was measured over a 10 sec interval using a TECAN luminometer. For each experiment described, data was obtained from a minimum of at least 3 biological repetitions per treatment."}, "HCMV": {"tested_on": "HCMV", "details": "cited from earlier work"}},
  "data": [
    {"smiles": "N.N.[Cl][Pt][Cl]", "note": "[Cisplatin, cis-diamminedichloroplatinum(II), reference compound]", "values": [
      {"measurement": "canine tumour cells after Cisplatin only", "setting": "[1]", "result": "many cancer cells remain"},
      {"measurement": "effect on SKOV-3 cells, Cisplatin alone", "setting": "[2]", "result": "no effect"}
    ]},
    {"smiles": "CC/C=C\\C/C=C\\C/C=C\\CCCCCCCC(=O)OCC(COC(=O)CCCCCCC/C=C\\C/C=C\\C/C=C\\CC)CO[C@@H]1O[C@H](CO)[C@H](O)[C@H](O)[C@H]1O", "note": "[Compound 46]", "values": [
      {"measurement": "translation of NLGN1 5′UTR firefly luciferase reporter relative to neuroligin 2", "setting": "NLGN1 5′UTR", "result": "selectively inhibits the translation"},
      {"measurement": "sensitisation of A549 cells to low dose cisplatin", "setting": "[3]", "result": "sensitizes"},
      {"measurement": "growth of A549 cells", "setting": "[3]", "result": "inhibits the growth"},
      {"measurement": "signal of NLGN2 5′UTR firefly luciferase reporter", "setting": "NLGN2 5′UTR", "result": "little effect"}
    ]},
    {"smiles": "CC/C=C\\C/C=C\\C/C=C\\CCCCCCCC(=O)OCC(COC(=O)CCCCCCC/C=C\\C/C=C\\C/C=C\\CC)CO[C@@H]1O[C@H](CO)[C@@H](O)[C@H](O)[C@H]1O", "note": "[Compound 99]", "values": [
      {"measurement": "sensitisation of A549 cells to low dose cisplatin", "setting": "[3]", "result": "sensitizes"},
      {"measurement": "growth of A549 cells", "setting": "[3]", "result": "inhibits the growth"}
    ]},
    {"smiles": "CC/C=C\\C/C=C\\C/C=C\\CCCCCCCC(=O)OC[C@H](CO[C@H]1O[C@H](CO)[C@@H](O)[C@H](O)[C@H]1O)OC(=O)CCCCCCC/C=C\\C/C=C\\C/C=C\\CC", "note": "[Compound 123]", "values": [
      {"measurement": "sensitisation of A549 cells to low dose cisplatin", "setting": "[3]", "result": "sensitizes"},
      {"measurement": "growth of A549 cells", "setting": "[3]", "result": "inhibits the growth"}
    ]},
    {"smiles": "C[C@H]1C[C@@]2(O[C@H]3C[C@H]4[C@@H]5CC[C@H]6C[C@H](O)CC[C@]6(C)[C@H]5[C@@H](O)C[C@]4(C)[C@H]3[C@@]2(C)O)OC1(C)C", "note": "[Hippuristanol, reference compound]", "values": [
      {"measurement": "translation of NLGN1 5′UTR firefly luciferase reporter relative to neuroligin 2", "setting": "NLGN1 5′UTR", "result": "selective inhibition"},
      {"measurement": "anti-proliferative activity on A549 cells", "setting": "[3]; alone, FIG. 11", "result": "anti-proliferative"},
      {"measurement": "translation of the three Gag isoforms", "setting": "three Gag isoforms", "result": "inhibits the translation of the three Gag isoforms"},
      {"measurement": "inhibition of translation reporter", "setting": "[4]", "result": "significant inhibition"}
    ]},
    {"smiles": "CC(/C=C/C(C)=C/[C@@H]1Cc2nc(cs2)[C@@H](C)C[C@@H](N)CC(=O)O[C@@H](C)C/C(C)=C/C=C\\C(=O)O1)=C\\CN(C)C", "note": "[Pateamine A]", "values": [
      {"measurement": "replication of HCMV", "setting": "HCMV", "result": "inhibits the replication of HCMV"}
    ]},
    {"smiles": "CC/C=C\\C/C=C\\C/C=C\\CCCCCCCC(=O)OC[C@H](COC1OC(COC(C)=O)C(OC(C)=O)C(OC(C)=O)C1OC(C)=O)OC(=O)CCCCCCC/C=C\\C/C=C\\C/C=C\\CC", "note": "(some centres unmarked) [acetyl derivative of Formula II]", "values": [
      {"measurement": "increase in the efficacy of Cisplatin", "setting": "[3]; 30 μg plus 2 μM Cisplatin, WST-1, 72 hrs, FIG. 9c", "result": 8, "unit": "fold"},
      {"measurement": "effect on A549 cells, compound alone", "setting": "[3]; 50 μg alone, WST-1, 72 hrs, FIG. 9c", "result": "No effect"}
    ]}
  ]
}
